# Test results reported in PubChem BioAssay AID1918958 (Molecular Pharmacology Branch, DTP, NCI, 2023).
# Test system: NCI-H196 complex spheroid viability
# Test: Anticancer human tumor NCI-H196 cell line growth inhibition [LSD1];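 also: spheroids exposed to agents for 7 days before readout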;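 as to viability, T/C: 100% = DMSO vehicle control viability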
# Conditions: for IC50: curve of first compound; for viability, T/C: stronger effect = lower value
# Excerpt: Multicellular complex tumor spheroid response to LSD1 Inhibitor Iadademstat in combination with a variety of drugs and investigational agents in selected tumor cell lines
# The current study was undertaken to assess response to LSD1 inhibitors in combination with standard-of-care drugs and investigational agents in solid tumor complex spheroid models as well as in the K-562 leukemia. Complex spheroids include a stromal component modeled by human endothelial cells (HUVEC) and fibroblasts modeled by human mesenchymal stem cells (MSCs). The concentration ranges selected for each drug and investigational agent were based upon clinically achievable concentrations if the clinical Cmax of the agent was known.
# Compounds. The drugs and investigational agents used in this study are listed on Table 1. All of the agents used, including staurosporine (NSC755774) and gemcitabine (NSC613327), were obtained from the Developmental Therapeutics Program, NCI. FDA-approved anticancer drugs are available from the NCI at http://dtp.nci.nih.gov/branches/dscb/oncology_drugset_explanation.html. Drugs and investigational agents were >95% pure by proton nuclear magnetic resonance (NMR) and liquid chromatography/mass spectrometry (LC/MS). Stock solutions were prepared at 400x in DMSO, stored at -70 degrees C, and diluted in fresh medium prior to their use. The final concentration of DMSO in cell culture wells never exceeded 0.25% (v/v). The FDA-approved anticancer drug set is available from the Developmental Therapeutics Program at https://dtp.cancer.gov/organization/dscb/obtaining/available_plates.htm. All drugs and investigational agents were tested over a range starting from a high concentration at or near the clinical Cmax and decreasing in half-log increments. If the clinical Cmax for an agent had not been determined, the highest concentration tested was 10 microM.
# Cell Lines. The patient-derived cancer cell (PDC) lines: 292921-168-R-J2-PDC, K24384-001-R-PDC, and 521955-158-R2-J5-PDC pancreatic carcinomas, 556581-035-R-J1 ovarian carcinoma, 324938-238-R-J1-PDC, 855422-203-R-J1-PDC and 883617-216-R-J1-PDC urothelial bladder carcinomas, 743489-274-T-PDC renal cell carcinoma, 138582-R-J1 Merkel cell tumor, K60290-347-R-J1 and K57222-313-R-J1-PDC glioblastomas, 653999-131-R-J2-PDC, LG0703-F948-PDC, and 349418-098-R-PDC non-small cell lung carcinomas, 885512-296-R-J2-PDC, 171881-019-R-J1-PDC breast carcinomas and 186277-243-T-J2-PDC and 233499-124-R-J2-PDC colon carcinomas were obtained from the NCI Patient-Derived Models Repository (PDMR, https://pdmr.cancer.gov). The established cell lines NCI/ADR-RES (RRID:CVCL_14520 and OVCAR-5 (RRID:CVCL_1628) ovarian carcinomas, 786-O (RRID:CVCL_1051) and A498 (RRID:CVCL_A498) renal cell carcinoma, NCI-H211 (ATCC, cat. CRL-5824; RRID:CVCL_1529), NCI-H196 (ATCC, cat. CRL-5823, RRID:CVCL_1509), SW 1271 (ATCC, cat. CRL-2177, RRID:CVCL_1716) and NCI-H1876 (ATCC, cat. CRL-5902, RRID:CVCL_1503) small cell lung carcinomas, MDA-MB-231 (RRID:CVCL_0062) and MDA-MB-468 (RRID:CVCL_0419)breast carcinomas (10-12). Pooled donor human umbilical vein endothelial cells (HUVEC, Lonza, cat. CC-2519) and human mesenchymal stem cells (hMSC, Lonza, cat. PT-2501) were purchased from Lonza (Walkersville, MD).
# Cell Culture. All cells were maintained in an incubator at 37 degrees C and 5% CO2 with 95% humidity. The PDC lines were cultured according to standard operating procedures established by the NCI PDMR (https://pdmr.cancer.gov). Briefly all PDCs were thawed and cultured in Matrigel-coated flasks prepared with a working solution of 1X Ham's F-12 nutrient mix, without supplementation (Invitrogen, Waltham, MA, cat. 11765054), 100 U/mL penicillin-streptomycin (Invitrogen, cat. 15140122), and 2.5% Matrigel (Corning Inc., Corning, NY, cat. 354248) for the first three passages. […]
# [1] = second compound 0.1 µM, first compound 0.000949 µM
# [2] = second compound 0.1 µM, first compound 0.003 µM
# [3] = second compound 0.1 µM, first compound 0.00949 µM
# [4] = second compound 0.1 µM, first compound 0.03 µM
# [5] = second compound 0.1 µM, first compound 0.0949 µM
# [6] = second compound 0.1 µM, first compound 0.3 µM
# [7] = second compound 0.316 µM, first compound 0.000949 µM
# [8] = second compound 0.316 µM, first compound 0.003 µM
# [9] = second compound 0.316 µM, first compound 0.00949 µM
# [10] = second compound 0.316 µM, first compound 0.03 µM
# [11] = second compound 0.316 µM, first compound 0.0949 µM
# [12] = second compound 0.316 µM, first compound 0.3 µM
# [13] = second compound 1 µM, first compound 0.000949 µM
# [14] = second compound 1 µM, first compound 0.003 µM
# [15] = second compound 1 µM, first compound 0.00949 µM
# [16] = second compound 1 µM, first compound 0.03 µM
# [17] = second compound 1 µM, first compound 0.0949 µM
# [18] = second compound 1 µM, first compound 0.3 µM
# [19] = second compound 3.16 µM, first compound 0.000949 µM
# [20] = second compound 3.16 µM, first compound 0.003 µM
# [21] = second compound 3.16 µM, first compound 0.00949 µM
# [22] = second compound 3.16 µM, first compound 0.03 µM
# [23] = second compound 3.16 µM, first compound 0.0949 µM
# [24] = second compound 3.16 µM, first compound 0.3 µM
# [25] = second compound 10 µM, first compound 0.000949 µM
# [26] = second compound 10 µM, first compound 0.003 µM
# [27] = second compound 10 µM, first compound 0.00949 µM
# [28] = second compound 10 µM, first compound 0.03 µM
# [29] = second compound 10 µM, first compound 0.0949 µM
# [30] = second compound 10 µM, first compound 0.3 µM
SMILES,IC50 (second compound 0.1 µM) [nM],IC50 (second compound 0.316 µM) [nM],IC50 (second compound 1 µM) [nM],IC50 (second compound 3.16 µM) [nM],IC50 (second compound 10 µM) [nM],"viability, T/C [1] [%]","viability, T/C [2] [%]","viability, T/C [3] [%]","viability, T/C [4] [%]","viability, T/C [5] [%]","viability, T/C [6] [%]","viability, T/C [7] [%]","viability, T/C [8] [%]","viability, T/C [9] [%]","viability, T/C [10] [%]","viability, T/C [11] [%]","viability, T/C [12] [%]","viability, T/C [13] [%]","viability, T/C [14] [%]","viability, T/C [15] [%]",also measured
CCc1c2c(nc3ccc(O)cc13)-c1cc3c(c(=O)n1C2)COC(=O)[C@]3(O)CC + NC1CC1c1ccc(-c2cccc(O)c2)cc1,8.32,9.63,9.19,6.69,5.92,119,111,42,4.2,1.09,0.82,107,93.1,52.4,4.27,1.53,1.11,112,94.9,51.1,"viability, T/C [16]: 3.65%; viability, T/C [17]: 1.2%; viability, T/C [18]: 0.86%; viability, T/C [19]: 102%; viability, T/C [20]: 81.2%; viability, T/C [21]: 37.8%; viability, T/C [22]: 2.23%; viability, T/C [23]: 1.01%; viability, T/C [24]: 0.7%; viability, T/C [25]: 90.9%; viability, T/C [26]: 82.7%; viability, T/C [27]: 27.4%; viability, T/C [28]: 1.9%; viability, T/C [29]: 0.86%; viability, T/C [30]: 0.72%"
Nc1ccn(C2OC(CO)C(O)C2(F)F)c(=O)n1 (stereo not given) + NC1CC1c1ccc(-c2cccc(O)c2)cc1,> 300,> 300,> 300,> 300,> 300,119,105,97.4,65.2,68.9,62.6,106,107,79.7,66.8,67.3,67.7,108,108,75.6,"viability, T/C [16]: 68.7%; viability, T/C [17]: 61.6%; viability, T/C [18]: 71.2%; viability, T/C [19]: 117%; viability, T/C [20]: 104%; viability, T/C [21]: 96.4%; viability, T/C [22]: 76.2%; viability, T/C [23]: 67.2%; viability, T/C [24]: 72%; viability, T/C [25]: 111%; viability, T/C [26]: 98.2%; viability, T/C [27]: 91.3%; viability, T/C [28]: 71.9%; viability, T/C [29]: 72.5%; viability, T/C [30]: 69.3%"
